Laboratory results: patent EP0808325B1, “[…] […] SERIES FOR […] GABA RECEPTOR” (priority 1994, dated 1996)
Like-named read-outs stand apart in the source and are kept apart here.

How the values were obtained:
rats = experiment: Vogel test; type: in vivo; conditions: i.c.v.
Source text: The Vogel test is based on the development of a conflict between a highly motivated behavior and an aversion. For this test, the strong motivation is thirst. The animal is water deprived for 12-16 hrs to produce the motivation to drink. During the training period the animals are exposed to the testing environment so they become accustomed to the drinking spout and minimize the fear of a novel environment. Following training, the animals are allowed access to water for 2 hrs. During this time, the animals will drink and eat their normal amount of water and food, compensating for the deprivation time. However, this schedule still produces a strong motivation to drink during the testing period.
Having been deprived of water for twelve to sixteen hours, an animal is placed in a test cage where it is allowed to drink freely for five minutes. This period is used to habituate the animal to the environment and the drinking spout Following the training period, animals have access to water and food in their home cage for 2 hrs. Food is available at all times. Twenty-four hours later, drug is administered to the animal intracerebroventricularly.
After an indicated delay started from the time of injection the animal is again placed in the test cage for ten minutes. A computer counts each time the animal licks, and after every twentieth lick administers a mild electric stimulus across the tongue and/or feet. The electrical stimulus consists of a 0.6 mA current with a duration of 100 msec. This procedure produces a state of conflict for the animal that is reduced by the administration of clinically used anxiolytic agents (i.e., Valium). For dose-response curves, separate groups of animals are injected with increasing doses of test drug and are tested at a predetermined time.

GR complex = experiment: modulation of [35S]TBPS binding in rat cerebral cortex P2 homogenate; set-up: species or system Sprague-Dawley rats; IMAX: unit not given here; conditions: for IC50: concentration of compounds to inhibit 50% of control [35S]TBPS binding, 2 nM [35S]TBPS, 25°C, 90 minutes, no unit printed; for IMAX: maximum inhibition of [35S]TBPS binding, I* = Inactive
In short: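 Rat (male Sprague-Dawley) cortical P2 homogenate, 0.5 mg protein, in 50 mM Na/K phosphate pH 7.4, 200 mM NaCl, incubated 90 min at 25° C with 2 nM [35S]TBPS plus GABA and (+)bicuculline, compounds added in DMSO. Filter-bound radioactivity counted; nonspecific binding defined with […].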

[1] = tested on: metrazol induced convulsions; experiment: animal or person; type: in vivo, mice; conditions: for % Protected: 10 mg/kg
maximal electroshock [2] = experiment: maximal electroshock test; type: in vivo, mice; conditions: Mus musculus, ip, 20% hydroxypropyl-β-cyclodextrin in water
Source text: The anticonvulsant tests are similar to that described above. […]

mice [3] = experiment: elevated plus-maze; type: in vivo, N.I.H. Swiss-Webster mice
In short: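 Male Swiss-Webster mice (15-20 g), dosed once with drug or vehicle, were placed on an elevated plus-maze 10 min post-injection for 5 min. Open-arm entries and open-arm time recorded, each as a percentage of total arm entries or time; center time excluded.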

mice [4] = experiment: light/dark transition test; type: in vivo, N.I.H. Swiss-Webster mice; conditions: IP
Source text: The light/dark transition test (Crawley and Goodwin, Pharmacol. Biochem. Behav. 13:67-70 1980) is based on the observation that rodents naturally tend to explore novel environments, but open, brightly lit arenas are aversive to the rodents and inhibit exploratory behavior (Christmas and Maxwell, Neuropharmacol. 9:17-29 1970; File, J. Neurosci. Meth. 2:219-238 1980).
Male N.I.H. Swiss-Webster mice (Harlan, Harlan, Indianapolis, IN) weighing 15-20 g were housed four per cage in polyethylene cages with sawdust bedding. The colony room was environmentally controlled (22°C) with a 12 hr light/dark cycle (0600-1800 hr). Food and water were available ad libitum, except during testing. The experiments were run from 0700-1500 hr and groups were counterbalanced for time of day effects. Mice were only administered drug or vehicle once.
The method used was a modification of methods previously described (Wieland et al., Br. Res. 565:263-268 (1991)). The apparatus included two 2-compartment automated test chambers (Model RXYZCM16, Omnitech Electronics, Columbus, OH). The open compartment was connected to the enclosed compartment via a 7.5 x 7.5 cm passageway. The open compartment was brightly lit using a 200 W incandescent light bulb. The experimental room was kept dark. Interruptions of the infrared beams in either chamber were automatically recorded by being linked to a computer through a Digiscan Analyzer (Omnitech Electronics) and the data was analyzed using the Integrated Lab Animal Monitoring System (Omnitech Electronics).
N.I.H. Swiss-Webster mice were administered vehicle or test drug intraperitoneally (IP), 10 min later they were placed in the center of the lit compartment. The number of transitions between the lit and dark chambers, total activity in the lit chamber and the time spent in the lit chamber were measured during a 10 min test period.

[5] = tested on: metrazol induced convulsions; conditions: cited from earlier work
(+)bicuculline = conditions: cited from earlier work
maximal electroshock [6] = conditions: cited from earlier work
picrotoxin = conditions: cited from earlier work
mice [7] = conditions: Rotorod; data from Swinyard & Woodhead 1982; cited from earlier work
strychnine = strychnine administered i.v.; data from Worms et al. 1982; cited from earlier work

CC(O)C1CCC2C3CCC4CC(O)C(F)CC4(C)C3CCC12C (stereo not drawn) [2β-Fluoro-3α,20α-dihydroxy-5α-pregnane]
Vogel (% of control) (rats; g-CD, 20 ug): 264.9 % of control

CC(C)(O)[C@H]1CC[C@H]2[C@@H]3CC[C@H]4C[C@H](O)CC[C@]4(C)[C@H]3CC[C@]12C [3α,20-dihydroxy-20-methyl-5α-pregnane]
Vogel (% of control) (rats; g-CD, 20 ug): 179.0 % of control | IC50 (GR complex): 176 nM | IMAX (GR complex): 40

C[C@H](O)[C@H]1CC[C@H]2[C@@H]3CC[C@H]4C[C@H](O)CC[C@]4(C)[C@H]3CC[C@]12C [3α,20a(S)-dihydroxy-5α-pregnane, 3α,20α(S)-Dihydroxy-5α-pregnane]
Vogel (% of control) (rats; b-CD, 10 ug): 193.0 % of control | % Protected ([1]; IP, micro soln.): 30% | IC50 (GR complex): 99 nM | IMAX (GR complex): 46

CC(C)OC1CC2(C)C(CCC3C2CCC2(C)C(C(C)O)CCC32)CC1O (stereo not drawn) [3α,20α-Dihydroxy-2β-isopropoxy-5α-pregnane]
Vogel (% of control) (rats; g-CD, 10 ug): 169.0 % of control

C[C@H](O)[C@H]1CC[C@H]2[C@@H]3CC[C@@H]4C[C@H](O)CC[C@]4(C)[C@H]3CC[C@]12C [3α,20α-Dihydroxy-5β-pregnane]
Vogel (% of control) (rats; g-CD, 10 ug): 283.3 % of control

CCC[C@H](O)[C@H]1CC[C@H]2[C@@H]3CC[C@H]4C[C@H](O)CC[C@]4(C)[C@H]3CC[C@]12C [3α,20α-dihydroxy-21-ethyl-5α-pregnane]
Vogel (% of control) (rats; g-CD, 20 ug): 225.8 % of control | IC50 (GR complex): 27 nM | IMAX (GR complex): 13

CC[C@H](O)[C@H]1CC[C@H]2[C@@H]3CC[C@H]4C[C@H](O)CC[C@]4(C)[C@H]3CC[C@]12C [3α,20α-dihydroxy-21-methyl-5α-pregnane, 3α,20α-Dihydroxy-21-methyl-5α-pregnane]
Vogel (% of control) (rats; g-CD, 10 ug): 157.9 % of control | IC50 (GR complex): 35 nM | IMAX (GR complex): 28

C[C@@H](O)[C@H]1CC[C@H]2[C@@H]3CC[C@@H]4C[C@H](O)CC[C@]4(C)[C@H]3CC[C@]12C [3α,20β-Dihydroxy-5β-pregnane]
Vogel (% of control) (rats; g-CD, 20 ug): 267.3 % of control

C[C@]12CC[C@@H](O)C[C@@H]1CC[C@@H]1[C@@H]2CC[C@]2(C)[C@@H](C(=O)CO)CC[C@@H]12 [3α,21-dihydroxy-5α-pregnan-20-one, reference compound]
% Protected ([1]; IP, 50% hpbcd, 10 minutes prior to metrazol (85 mg/kg)): 87.5% | ED50 ([1]; Mus musculus, metrazol s.c., steroid i.p., 20% hydroxypropyl-β-cyclodextrin in water): 8.1 mg/kg | ED50 (maximal electroshock [2]): 26.7 mg/kg | IC50 (GR complex): 76 nM | IMAX (GR complex): 100

CC(=O)[C@H]1CC[C@H]2[C@@H]3CC[C@@H]4C[C@H](O)CC[C@]4(C)[C@H]3CC[C@]12C [3α-Hydroxy-5β-pregnan-20-one, reference compound]
entries into the open-arms (mice [3]; 5 mg/kg (p ≤ 0.05)): significant increases | entries into the open-arms (mice [3]; 10 mg/kg (p ≤ 0.01)): significant increases | time spent on the open-arms (mice [3]; 10 mg/kg (p ≤ 0.01)): significant increases | activity (mice [4]; 10 & 20 mg/kg, compared to control groups): significant (p < 0.01) increases | number of transitions between the dark box and the light box (mice [4]; at doses tested, versus control (Dunnett's t-test)): significantly increased

O=C1CN=C(c2ccccc2Cl)c2cc([N+](=O)[O-])ccc2N1 [Clonazepam]
ED50 MTZ ([5]; metrazol, data from Swinyard & Woodhead 1982, NP = no protection): 0.009 mg/kg | ED50 BIC ((+)bicuculline; bicuculline, data from Swinyard & Woodhead 1982, NP = no protection): 0.0086 mg/kg | ED50 MES (maximal electroshock [6]; data from Swinyard & Woodhead 1982): 93 mg/kg | ED50 PICRO (picrotoxin; picrotoxin, data from Swinyard & Woodhead 1982, NP = no protection): 0.043 mg/kg | ED50 RR (mice [7]): 0.184 mg/kg

CCC1(c2ccccc2)C(=O)NC(=O)NC1=O [Phenobarbital]
ED50 RR (mice [7]): 69 mg/kg

NC(=O)CCC/N=C(\c1ccc(Cl)cc1)c1cc(F)ccc1O [Progabide]
ED50 MTZ ([5]; metrazol administered i.v., data from Worms et al. 1982): 30 mg/kg | ED50 STR (strychnine): 75 mg/kg | ED50 BIC ((+)bicuculline; bicuculline administered i.v., data from Worms et al. 1982): 30 mg/kg | ED50 MES (maximal electroshock [6]; data from Worms et al. 1982): 75 mg/kg | ED50 PICRO (picrotoxin; picrotoxin administered i.v., data from Worms et al. 1982): 105 mg/kg

C#C[C@@]1(O)CC[C@@]2(C)[C@H](CC[C@@H]3[C@@H]2CC[C@]2(C)[C@@H](C(=O)COC(=O)CCC(=O)O)CC[C@@H]32)C1 [Sodium 3α,21-dihydroxy-3β-ethynyl-5β-pregnan-20-one 21-hemisuccinate]
% Control (mice [3]; PO, water, 10 mg/kg): 159% | % Protected ([1]; mouse, in vivo, ip): 50% | IC50 (GR complex): 540 nM | IMAX (GR complex): 102 | soluble in water: > 20 mg/mL
